The record followed here is patent publication US20150306094A1, “TRANS-4--N,N-DIMETHYLCARBAMOYL-CYCLOHEXYLAMINE FOR TREATING NEGATIVE SYMPTOMS OF SCHIZOPHRENIA” (RICHTER GEDEON NYRT., priority 2012, published 2015).

For this experiment, the system named is patients with schizophrenia. The experiment in a line: international, multicenter, double-blind, placebo- and risperidone-controlled, fixed-dose clinical study. The note with it: for improvement on the PANSS factor score for negative symptoms, subpopulation with predominantly negative symptoms compared to ITT population: 6 week period, risperidone 4 mg/day, FIG. 1-4. Type of experiment: in vivo, human. The source says:
In the clinical study beside the ITT (intent to treat) population which included the total number of the patients, a subgroup was identified including patients with predominantly negative symptoms. This subgroup was identical with the patient subpopulation showing severe negative symptoms defined by Lenert et al. (Schizophrenia Research 71 (2004) 155-165). Patients showing severe negative symptoms were separated into two groups: State 4 and State 6 (definitions are described in Example). State 4 and State 6 together represent the patient subpopulation with predominantly negative symptoms.
The term “change from baseline” refers to the change of the value of the PANSS factor score for negative symptoms compared to the value registered before treatment started (at the baseline visit). The values were calculated using least squares method. The least squares mean (LSM) values resulted from the analysis of covariance (ANCOVA) model with treatment group and study center as factors and the baseline PANSS factor score of negative symptoms as the covariate.
PANSS factor score for negative symptoms: Sum of scores for items 1, 2, 3, 4, and 6 in negative subscale: blunted affect, emotional withdrawal, poor rapport, passive social withdrawal, lack of spontaneity; and items 7 and 16 in general psychopathology subscale: motor retardation, and active social avoidance. Higher scores indicate worsening.
A representative clinical study was conducted as an international, multicenter, double-bind, placebo- and risperidone-controlled, fixed-dose trial. The objective of the study was to evaluate the safety and efficacy of cariprazine fixed doses in patients with schizophrenia. A total of 732 patients were selected using criteria that includes patients who (i) currently meet or have met in the past the Diagnostic and Statistical Manual of Mental Disorders, Fourth Edition, Text Revision (DSM-IV-TR) criteria for schizophrenia (295.30 Paranoid Type, 295.10 Disorganized Type, 295.20 Catatonic Type, or 295.90 Undifferentiated Type) based on the Structured Clinical Interview for DSM-IV (SCID), (ii) have a PANSS total score ≧80 and ≦120, (iii) have a score ≧4 on Clinical Global Impression-Severity scale (iv) have a score ≧4 on at least 2 of the following 4 PANSS positive symptoms: delusions, hallucinatory behavior, conceptual disorganization, and suspiciousness/persecution.
During a 6 week period, 3 doses of cariprazine (1.5 mg/day, 3 mg/day, 4.5 mg/day) was compared to placebo and to an effective dose of risperidone (4.0 mg/day).
Beside the ITT (intent to treat) population which included the total number of the patients, a subgroup was identified including patients with predominantly negative symptoms. […]

Molecules are shown by their SMILES. Entries after “also recorded” stand apart in the source; their conditions may differ.

Turning to `CN(C)C(=O)N[C@H]1CC[C@H](CCN2CCN(c3cccc(Cl)c3Cl)CC2)CC1` [cariprazine, trans-4-{2-[4-(2,3-dichlorophenyl)-piperazin-1-yl]-ethyl}-N,N-dimethylcarbamoyl-cyclohexylamine], the “improvement on the PANSS factor score for negative symptoms, subpopulation with predominantly negative symptoms compared to ITT population” value (cariprazine 1.5, 3, 4.5 mg/day) is given as “numerically higher improvement”. For the same molecule, the “effect on primary negative symptoms of schizophrenia” value (conclusion from the clinical study of the Example) is reported as “can be treated effectively; also recorded: direct effect on negative symptoms”. Moreover, the “effect of extrapyramidal symptoms (EPS) on the change of PANSS factor score for negative symptoms” value (week 6, patients with predominantly negative symptoms vs subgroup without EPS, cariprazine 1.5, 3, 4.5 mg/day, FIG. 5) is listed as “does not seem to be influenced by the treatment emergent EPS”.

Consider `Cc1nc2n(c(=O)c1CCN1CCC(c3noc4cc(F)ccc34)CC1)CCCC2` [risperidone, reference compound], for which, for the setting “cariprazine 1.5, 3, 4.5 mg/day”, the “improvement on the PANSS factor score for negative symptoms, subpopulation with predominantly negative symptoms compared to ITT population” value is recorded as “no difference”.
